{
  "source": "ChEMBL document CHEMBL3044888",
  "about": "“Fungicidal activity of indole derivatives against some plant pathogenic fungi” (J Pestic Sci, 2010)",
  "key": {"[1]": {"system": "Fusarium culmorum", "assay": "Inhibition of peroxidase activity in Fusarium culmorum at 2 times of IC50 concentration"}, "[2]": {"system": "Rhizoctonia solani", "assay": "In vivo effect on peroxidase activity in Rhizoctonia solani assessed as reduced sugar content per gram of dry hyphal at 0.5 times of IC50 concentration (reference value: 17.3 +/- 1 mg/g of dry weight)", "format": "functional"}, "[3]": {"target": "T1, Peroxidase (Macrophomina phaseolina (strain MS6) (Charcoal rot fungus)) (UniProt K2RV19)", "T1 sequence (whole entry)": "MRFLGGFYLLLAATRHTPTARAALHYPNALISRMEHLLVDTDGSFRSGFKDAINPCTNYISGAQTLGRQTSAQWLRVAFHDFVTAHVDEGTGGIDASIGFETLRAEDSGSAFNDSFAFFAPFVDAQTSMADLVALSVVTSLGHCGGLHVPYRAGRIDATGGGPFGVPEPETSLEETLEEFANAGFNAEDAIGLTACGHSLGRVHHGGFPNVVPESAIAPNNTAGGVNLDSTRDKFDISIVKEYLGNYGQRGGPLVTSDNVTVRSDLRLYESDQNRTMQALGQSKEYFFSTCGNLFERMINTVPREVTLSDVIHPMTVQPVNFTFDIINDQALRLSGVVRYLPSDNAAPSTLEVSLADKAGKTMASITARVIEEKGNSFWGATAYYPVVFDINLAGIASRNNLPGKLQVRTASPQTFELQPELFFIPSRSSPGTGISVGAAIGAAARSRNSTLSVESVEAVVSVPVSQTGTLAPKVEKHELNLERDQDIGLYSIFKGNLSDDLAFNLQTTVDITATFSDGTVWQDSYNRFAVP", "assay": "Inhibition of peroxidase activity in Macrophomina phaseoli at 1 times of IC50 concentration"}, "[4]": {"assay": "Inhibition of peroxidase activity in Fusarium culmorum"}, "[5]": {"target": "T1, Peroxidase (Macrophomina phaseolina (strain MS6) (Charcoal rot fungus))", "assay": "Inhibition of peroxidase activity in Macrophomina phaseoli at 2 times of IC50 concentration"}, "[6]": {"assay": "Activation of polyphenoloxidase activity in Pythium debaryanum", "set-up": "species or system Globisporangium debaryanum"}, "[7]": {"system": "Globisporangium debaryanum", "assay": "In vivo effect on peroxidase activity in Pythium debaryanum assessed as DNA content at 0.5 times of IC50 concentration (reference value: 31 +/- 0.8 mg/l)", "format": "functional"}, "[8]": {"assay": "Inhibition of polyphenoloxidase activity in Rhizoctonia solani"}, "[9]": {"target": "T1, Peroxidase (Macrophomina phaseolina (strain MS6) (Charcoal rot fungus))", "assay": "Inhibition of peroxidase activity in Macrophomina phaseoli at 0.5 times of IC50 concentration"}, "[10]": {"assay": "Inhibition of polyphenoloxidase activity in Macrophomina phaseoli", "set-up": "species or system Macrophomina phaseolina"}, "[11]": {"system": "Fusarium culmorum", "assay": "In vivo effect on peroxidase activity in Fusarium culmorum assessed as DNA content at 0.1 times of IC50 concentration (reference value: 49.5 +/- 1.6 mg/l)", "format": "functional"}, "[12]": {"system": "Fusarium culmorum", "assay": "Inhibition of peroxidase activity in Fusarium culmorum at 1 times of IC50 concentration"}, "[13]": {"system": "Rhizoctonia solani", "assay": "Inhibition of peroxidase activity in Rhizoctonia solani at 0.1 times of IC50 concentration"}, "[14]": {"assay": "Inhibition of peroxidase activity in Pythium debaryanum", "set-up": "species or system Globisporangium debaryanum"}, "[15]": {"system": "Globisporangium debaryanum", "assay": "Inhibition of peroxidase activity in Pythium debaryanum at 1 times of IC50 concentration"}, "[16]": {"assay": "Inhibition of polyphenoloxidase activity in Pythium debaryanum", "set-up": "species or system Globisporangium debaryanum"}, "[17]": {"system": "Globisporangium debaryanum", "assay": "Inhibition of peroxidase activity in Pythium debaryanum at 2 times of IC50 concentration"}, "[18]": {"target": "T2, Peroxidase (Macrophomina phaseolina (strain MS6) (Charcoal rot fungus), UniProt K2RV19)", "T2 sequence (K2RV19 whole entry)": "T1 sequence (whole entry)", "assay": "Activation of peroxidase activity in Macrophomina phaseoli"}},
  "data": [
    {"smiles": "c1ccc(-c2cc3ccccc3[nH]2)cc1", "note": "[2-PHENYL-1H-INDOLE]", "values": [
      {"measurement": "inhibition", "setting": "[1]", "result": 69.2, "unit": "%"},
      {"measurement": "Activity", "setting": "[2]", "result": 16, "unit": "mg"},
      {"measurement": "inhibition", "setting": "[3]", "result": 40.7, "unit": "%"},
      {"measurement": "IC50", "setting": "[4]", "result": 49.9, "unit": "µg/mL"},
      {"measurement": "inhibition", "setting": "[5]", "result": 54.3, "unit": "%"},
      {"measurement": "AC50", "setting": "[6]", "result": 35.1, "unit": "µg/mL"},
      {"measurement": "Activity", "setting": "[7]", "result": 10.9, "unit": "mg/L"},
      {"measurement": "IC50", "setting": "[8]", "result": 80.3, "unit": "µg/mL"},
      {"measurement": "inhibition", "setting": "[9]", "result": 26.7, "unit": "%"},
      {"measurement": "IC50", "setting": "[10]", "result": 117.1, "unit": "µg/mL"},
      {"measurement": "Activity", "setting": "[11]", "result": 28.6, "unit": "mg/L"},
      {"measurement": "inhibition", "setting": "[12]", "result": 60.1, "unit": "%"},
      {"measurement": "inhibition", "setting": "[13]", "result": 0, "unit": "%"}
    ]},
    {"smiles": "CC(=O)n1c(-c2ccccc2)cc2ccccc21", "values": [
      {"measurement": "IC50", "setting": "[14]", "result": 96.14, "unit": "µg/mL"},
      {"measurement": "inhibition", "setting": "[15]", "result": 19.1, "unit": "%"},
      {"measurement": "Activity", "setting": "[2]", "result": 5.6, "unit": "mg"},
      {"measurement": "IC50", "setting": "[16]", "result": 45.6, "unit": "µg/mL"},
      {"measurement": "Activity", "setting": "[7]", "result": 11.3, "unit": "mg/L"},
      {"measurement": "inhibition", "setting": "[17]", "result": 25.7, "unit": "%"},
      {"measurement": "IC50", "setting": "[10]", "result": 80.2, "unit": "µg/mL"},
      {"measurement": "AC50", "setting": "[18]", "result": "< 25.1", "unit": "µM"},
      {"measurement": "Activity", "setting": "[11]", "result": 43.6, "unit": "mg/L"}
    ]}
  ]
}
